Target: T1, ER-alpha (WT) (Homo sapiens, UniProt P03372)
T1 construct: endogenous in cells; host or cells: MCF7 breast cancer cells
T1 sequence (P03372 1-595): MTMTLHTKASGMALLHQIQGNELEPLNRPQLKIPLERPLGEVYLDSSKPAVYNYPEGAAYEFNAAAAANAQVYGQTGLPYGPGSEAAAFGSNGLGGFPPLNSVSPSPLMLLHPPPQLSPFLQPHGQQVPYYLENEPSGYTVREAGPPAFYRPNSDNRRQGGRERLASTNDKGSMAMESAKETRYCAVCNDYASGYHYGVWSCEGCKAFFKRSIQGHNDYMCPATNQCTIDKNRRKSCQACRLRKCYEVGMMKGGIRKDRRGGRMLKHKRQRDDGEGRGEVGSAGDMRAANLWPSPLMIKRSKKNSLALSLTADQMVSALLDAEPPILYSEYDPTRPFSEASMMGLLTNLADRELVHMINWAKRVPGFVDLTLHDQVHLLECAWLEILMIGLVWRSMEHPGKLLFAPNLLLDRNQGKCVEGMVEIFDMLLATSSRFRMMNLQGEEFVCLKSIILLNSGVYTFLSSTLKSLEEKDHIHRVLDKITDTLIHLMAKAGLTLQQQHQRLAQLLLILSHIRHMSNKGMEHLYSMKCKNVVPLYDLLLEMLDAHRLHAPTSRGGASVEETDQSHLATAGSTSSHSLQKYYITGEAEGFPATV
Experiment: Breast Cancer Cell ERa High Content Fluorescence Imaging Degradation Assay (MCF7 HCS)
Type: cell-based
Settings: MCF7 breast cancer cells, 4 hours incubation; for EC50: inflexion point of curve; for ERalpha (WT) MCF7 HCS (S inf): plateau of the maximal effect, DMSO and Fulvestrant define 0% and 100% changes in ESR1
Procedure: MCF7 breast cancer cells were seeded on day 1 at a density of 10,000 cells per well in 384 well poly-lysine coated tissue culture plate (Greiner #T-3101-4), in 50 μL/well RPMI (phenol red free), 10% FBS (Charcoal stripped), containing L-glutamine. […] Compounds and controls were dispensed using a Labcyte Echo acoustic dispenser to dispense compounds with a predefined serial dilution (1.8×, 10 point, in duplicate) and appropriate backfill and control compounds (final total volume transferred was 417.5 nL and compound dispense volume ranges from 2.5 nL to 417.5 nL; 0.84% DMSO (v/v) final), ultimately producing a concentration range from 0.05 nM to 835 nM. Cell plates were incubated at 37° C., for 4 hours. Fixation and permeabilization were carried out using a Biotek EL406 plate washer and dispenser as follows. Cells were fixed by addition of 15 μL of 16% paraformaldehyde (Electron Microscopy Sciences #15710-S) directly to the 50 μL cell culture medium in each well using the peristaltic pump 5 μL cassette on a Biotek EL406 (final concentration of formaldehyde was 3.7% w/v). Samples were incubated 30 minutes. Well contents was aspirated and 50 μL/well of Phosphate Buffered Saline (PBS) containing 0.5% w/v bovine serum albumen, 0.5% v/v Triton X-100 (Antibody Dilution Buffer) was added to each well. Samples were incubated for 30 minutes. Well contents were aspirated and washed 3 times with 100 μL/well of PBS. Immunofluorescence staining of estrogen receptor alpha (ESR1) was carried out using a Biotek EL406 plate washer and dispenser as follows. The well supernatant was aspirated from the wells and 25 μL/well of anti-ESR1 mAb (F10) (Santa Cruz sc-8002) diluted 1:1000 in Antibody Dilution Buffer was dispensed. Samples were incubated for 2 hours at room temperature. Samples were washed 4 times with 100 μL/well of PBS. 25 μL (microliters)/well of secondary antibody solution (Alexafluor® 488 conjugate anti-mouse IgG (LifeTechnologies #A21202) diluted 1:1000 and Hoechst 33342 1 μg/mL diluted in Antibody Dilution Buffer) were dispensed into each well. Samples were incubated for 2 hours at room temperature. Samples were washed 3 times with 100 μL/well of PBS using a Biotek EL406. Quantitative fluorescence imaging of ESR1 was carried out using a Cellomics Arrayscan V® (Thermo). Fluorescence images of the samples (Channel 1: XF53 Hoechst (DNA stain); Channel 2: XF53 FITC (ESR1 stain)) were acquired using a Cellomics VTI Arrayscan using the Bioapplication “Compartmental Analysis” using the auto-exposure (based on DMSO control wells) setting “peak target percentile” set to 25% target saturation for both channels. Channel 1 (DNA stain) was used to define the nuclear region (Circ). Measurements of “Mean_CircAvgIntCh2”, which is the Alexafluor 488 fluorescence intensity (ESR1) within the nuclear region, was measured on a per cell basis and averaged over all the measured cells. Data analysis was carried out using Genedata Screener Software, with DMSO and 5 nM Fulvestrant treated samples being used to define the 0% and 100% changes in ESR1. The “Robust Fit” method was used to define the inflexion point of curve (EC50) and the plateau of the maximal effect (Sinf).

Row | SMILES | EC50 [nM] | ERalpha (WT) MCF7 HCS (S inf) [%]
1 | C[C@@H](CN1CCc2cc(O)ccc2[C@]1(C)c1ccc(OCCN2CC(CF)C2)cc1)C(=O)O [Example 135, (S)-3-((S)-1-(4-(2-(3-(fluoromethyl)azetidin-1-yl)ethoxy)phenyl)-6-hydroxy-1-methyl-3,4-dihydroisoquinolin-2(1H)-yl)-2-methylpropanoic acid] | ≥ 100 | 
2 | C[C@@H](CN1CCc2cc(O)ccc2[C@@]1(C)c1ccc(OCCN2CC(CF)C2)cc1)C(=O)O [Example 136, (S)-3-((R)-1-(4-(2-(3-(fluoromethyl)azetidin-1-yl)ethoxy)phenyl)-6-hydroxy-1-methyl-3,4-dihydroisoquinolin-2(1H)-yl)-2-methylpropanoic acid] | ≥ 100 | 
3 | C[C@H](CN1CCc2cc(O)ccc2[C@@]1(C)c1ccc(OCCN2CC(CF)C2)cc1)C(=O)O [Example 137, (R)-3-((R)-1-(4-(2-(3-(fluoromethyl)azetidin-1-yl)ethoxy)phenyl)-6-hydroxy-1-methyl-3,4-dihydroisoquinolin-2(1H)-yl)-2-methylpropanoic acid] | 40 | −45
4 | C[C@H](CN1CCc2cc(O)ccc2[C@]1(C)c1ccc(OCCN2CC(CF)C2)cc1)C(=O)O [Example 138, (R)-3-((S)-1-(4-(2-(3-(fluoromethyl)azetidin-1-yl)ethoxy)phenyl)-6-hydroxy-1-methyl-3,4-dihydroisoquinolin-2(1H)-yl)-2-methylpropanoic acid] | ≥ 100 | 
5 | NC(=O)c1ccc2c(c1)CCN(CC(F)(F)F)[C@H]2c1ccc(OCCN2CC(CF)C2)cc1 [Example 141, (1S)-1-[4-[2-[3-(fluoromethyl)azetidin-1-yl]ethoxy]phenyl]-2-(2,2,2-trifluoroethyl)-3,4-dihydro-1H-isoquinoline-6-carboxamide] | ≥ 100 | 
6 | FCC1CN(CCOc2ccc([C@H]3c4ccc(-c5cn[nH]c5)cc4CCN3CC(F)(F)F)cc2)C1 [Example 145, (1S)-1-[4-[2-[3-(fluoromethyl)azetidin-1-yl]ethoxy]phenyl]-6-(1H-pyrazol-4-yl)-2-(2,2,2-trifluoroethyl)-3,4-dihydro-1H-isoquinoline] | ≥ 100 | −100
7 | FCC1CN(CCOc2ccc([C@H]3c4ccc(N5CCOCC5)cc4CCN3CC(F)(F)F)cc2)C1 [Example 147, 4-[(1S)-1-[4-[2-[3-(fluoromethyl)azetidin-1-yl]ethoxy]phenyl]-2-(2,2,2-trifluoroethyl)-3,4-dihydro-1H-isoquinolin-6-yl]morpholine] | ≥ 100 | 
8 | FCC1CN(CCOc2ccc([C@H]3c4ccc(-c5cc[nH]n5)cc4CCN3CC(F)(F)F)cc2)C1 [Example 151, (1S)-1-[4-[2-[3-(fluoromethyl)azetidin-1-yl]ethoxy]phenyl]-6-(1H-pyrazol-3-yl)-2-(2,2,2-trifluoroethyl)-3,4-dihydro-1H-isoquinoline] | ≥ 100 | 
9 | C[C@H]1Cc2cc(C(C)(C)O)ccc2[C@H](c2ccc(OCCN3CC(CF)C3)cc2)N1CC(F)(F)F [Example 162, 2-((1S,3S)-1-(4-(2-(3-(Fluoromethyl)azetidin-1-yl)ethoxy)phenyl)-3-methyl-2-(2,2,2-trifluoroethyl)-1,2,3,4-tetrahydroisoquinolin-6-yl)propan-2-ol] | 280 | 

Now those with a lower EC50, led by results:

Row | EC50 [nM] | ERalpha (WT) MCF7 HCS (S inf) [%] | SMILES
10 | 29 | −79 | NC(=O)c1ccc2c(c1)CCN(CC(F)(F)F)[C@@H]2c1ccc(OCCN2CC(CF)C2)cc1 [Example 142, (1R)-1-[4-[2-[3-(fluoromethyl)azetidin-1-yl]ethoxy]phenyl]-2-(2,2,2-trifluoroethyl)-3,4-dihydro-1H-isoquinoline-6-carboxamide]
11 | 17 | −90 | Oc1ccc2c(c1)CCN(CC(F)(F)F)[C@H]2c1c(F)cc(OCCN2CC(CF)C2)cc1F [Example 133, (1R)-1-[2,6-difluoro-4-[2-[3-(fluoromethyl)azetidin-1-yl]ethoxy]phenyl]-2-(2,2,2-trifluoroethyl)-3,4-dihydro-1H-isoquinolin-6-ol]
12 | 17 | −91 | FCC1CN(CCOc2ccc([C@@H]3c4ccc(-c5cc[nH]n5)cc4CCN3CC(F)(F)F)cc2)C1 [Example 152, (1R)-1-[4-[2-[3-(fluoromethyl)azetidin-1-yl]ethoxy]phenyl]-6-(1H-pyrazol-3-yl)-2-(2,2,2-trifluoroethyl)-3,4-dihydro-1H-isoquinoline]
13 | 12 | −89 | FCC1CN(CCOc2ccc([C@@H]3c4ccc(N5CCOCC5)cc4CCN3CC(F)(F)F)cc2)C1 [Example 148, 4-[(1R)-1-[4-[2-[3-(fluoromethyl)azetidin-1-yl]ethoxy]phenyl]-2-(2,2,2-trifluoroethyl)-3,4-dihydro-1H-isoquinolin-6-yl]morpholine]
14 | 11 | −82 | C[C@@H]1Cc2cc(C(C)(C)O)ccc2[C@@H](c2ccc(OCCN3CC(CF)C3)cc2)N1CC(F)(F)F [Example 161, 2-((1R,3R)-1-(4-(2-(3-(Fluoromethyl)azetidin-1-yl)ethoxy)phenyl)-3-methyl-2-(2,2,2-trifluoroethyl)-1,2,3,4-tetrahydroisoquinolin-6-yl)propan-2-ol]
15 | 1.7 | −100 | OCc1ccc2c(c1)CCN(CC(F)(F)F)[C@@H]2c1ccc(OCCN2CC(CF)C2)cc1 [Example 150, [(1R)-1-[4-[2-[3-(fluoromethyl)azetidin-1-yl]ethoxy]phenyl]-2-(2,2,2-trifluoroethyl)-3,4-dihydro-1H-isoquinolin-6-yl]methanol]
16 | 0.56 | −95 | FCC1CN(CCOc2ccc([C@@H]3c4ccc(-c5cn[nH]c5)cc4CCN3CC(F)(F)F)cc2)C1 [Example 146, (1R)-1-[4-[2-[3-(fluoromethyl)azetidin-1-yl]ethoxy]phenyl]-6-(1H-pyrazol-4-yl)-2-(2,2,2-trifluoroethyl)-3,4-dihydro-1H-isoquinoline]
17 | 0.48 | −98 | CC1(C)Cc2cc(O)ccc2[C@H](c2ccc(OCCN3CC(CF)C3)cc2)N1CC(F)(F)F [Example 157, (S)-1-(4-(2-(3-(Fluoromethyl)azetidin-1-yl)ethoxy)phenyl)-3,3-dimethyl-2-(2,2,2-trifluoroethyl)-1,2,3,4-tetrahydroisoquinolin-6-ol]
18 | 0.042 | −101 | C[C@@]1(c2ccc(OCCN3CC(CF)C3)cc2)c2ccc(O)cc2CCN1CC(F)(F)CO [Example 130, (R)-2-(2,2-difluoro-3-hydroxypropyl)-1-(4-(2-(3-(fluoromethyl)azetidin-1-yl)ethoxy)phenyl)-1-methyl-1,2,3,4-tetrahydroisoquinolin-6-ol]
19 | 0.013 | −98 | Oc1ccc2c(c1)CCN(CC(F)(F)F)[C@@H]2c1c(F)cc(OCCN2CC(CF)C2)cc1F [Example 134, (1S)-1-[2,6-difluoro-4-[2-[3-(fluoromethyl)azetidin-1-yl]ethoxy]phenyl]-2-(2,2,2-trifluoroethyl)-3,4-dihydro-1H-isoquinolin-6-ol]
